Entries after “also recorded” stand apart in the source; their conditions may differ. Read-outs that look alike come from different tables or passages of the source. Bridges are numbered along the chain shown (N, C = ends). Primed or numbered codes have the meaning given here. Where no end group is shown, it is not given here. [ ]: non-standard residue; d: D form. trimesoyl″ = trimesic acid scaffold joined by three amide bonds; Nal = naphthylalanine (isomer not specified); pY = N[C@@H](Cc1ccc(OP(=O)(O)O)cc1)C(=O)O; Phg = N[C@H](C(=O)O)c1ccccc1; Pra = C#CC[C@H](N)C(=O)O; dNal = D-naphthylalanine; Dap = NC[C@H](N)C(=O)O
Legend:
K-Ras [1] = target: T1, K-Ras (Homo sapiens, UniProt P01116, G12V); experiment: Competition between labeled peptide 2 and DCAI for K-Ras; format: binding
T1 construct: GST; made in house

H358 lung cancer cells = experiment: MTT assay, growth of H358 cells; format: cell-based
Method: FIG. 23a, b show on-bead assay of inhibition of Ras-Raf interaction by cyclorasin B3.
Cyclorasin B2-B4 were tested for inhibition of cell proliferation by the MTT assay.

WEHI-13VAR fibroblasts [2] = system: WEHI-13VAR fibroblasts
human TNFα = target: T2, human TNFα (Homo sapiens, UniProt P01375); experiment: Fluorescence anisotropy (FA) binding to TNFα; conditions: resynthesized, FITC-labeled, HPLC-purified peptide
T2 construct: extracellular domain of human TNFα (aa 77-233); made in house; host or cells: E. coli BL21(DE3)

K-Ras [3] = target: K-Ras (Homo sapiens, UniProt P01116); experiment: FA-based competition assay for binding to K-Ras
Ras-Raf interaction = Ras-Raf interaction (Homo sapiens, UniProt P01116); experiment: Qualitative on-bead assay of Ras-Raf interaction; format: binding; conditions: 10 μM peptide, Texas red-labeled K-Ras, immobilized GST-Raf
WEHI-13VAR fibroblasts [4] = conditions: in the presence of actinomycin-D; Khabar et al.; cited from earlier work
H1299 lung cancer cells = experiment: MTT proliferation assay; format: cell-based
Method: One hundred μL of H1299 cells (0.5×10^5 cells/mL) were placed in each well of a 96-well culture plate and allowed to grow overnight. […] Ten μL of a MTT stock solution (5 mg/ml) was added into each well. The plate was incubated at 37° C. for 4 h. Then 100 μL of SDS-HCl solubilizing buffer was added into each well, and the resulting solution was mixed thoroughly. The plate was incubated at 37° C. overnight. The absorbance of the formazan product was measured at 570 nm using a Molecular Devices Spectramax M5 plate reader. Cells treated with DMSO were used as control.

K-Ras [5] = target: T1, K-Ras; experiment: FA binding to K-Ras (Example 4 DCAI-bearing bicyclic peptides); conditions: FAM- or FITC-labeled peptide; NB = no binding
Description: To confirm the screening results, four hit sequences (peptides A2, A8, B5 and B8; hereafter named as peptides 1-4) were selected for resynthesis and tested for binding to K-Ras in solution by fluorescence anisotropy. The peptides were synthesized on Rink Amide resin, cleaved, deprotected, and purified by reversed-phase HPLC. Each peptide contains a Lys outside of the bicyclic rings to serve as the point of labeling with an amine-reactive fluorescent dye (FAM-NHS or FITC).

TNFα-TNFR1 interaction = target: T3, TNFα-TNFR1 interaction (Homo sapiens, UniProt P01375); experiment: TNFα-TNFR1 interaction ELISA (HRP-TNFR1, immobilized TNFα); conditions: read-out: IC50, inhibition of TNF-alpha binding to its cognate receptor
T3 construct: extracellular domain of human TNFα (aa 77-233); host or cells: E. coli BL21(DE3) (TNFα)
Method: Recombinant TNFR1 was purchased from R&D Systems. EZ-Link Plus activated peroxidase, an amine-reactive form of HRP was purchased from Thermo Scientific. TNFR1 was labeled with HRP by combining 50 μL of TNFR1 (1.0 μM) and 4 μL of HRP […], of Na2CO3 buffer (0.2 M Na2CO3, 0.15 M NaCl, pH 9.0) for 1 h. The resulting TNFR1-HRP conjugate was treated with NaCNBH3 to reduce the resulting Schiff base and quenched with 20 μl of ethanolamine. A Nunc 96F Maxisorp plate was coated overnight with 100 μL of […] Neutravidin (in 50 mM Na2CO3, pH 9.0) at 4° C. The solution was removed and each well was washed with 100 μL of the blocking buffer containing 3% BSA. […] The absorbance at 450 nm was measured and plotted against the peptide concentration and the IC50 value was obtained by curve fitting.
TNFα signaling begins with the binding of the TNFα trimer to the extracellular domain of TNFR1, triggering the release of the inhibitory protein, silencer of death domains (SODD), from the intracellular domain of TNFR1 (Chen, G and Goeddel, D V. Science, 2002, 296, 1634-1635). […] After washing, the amount of HRP-TNFR1 bound to each well was quantitated by ELISA using 3,3′,5,5′-tetramethylbenzidine (TMB) as HRP substrate, which was converted into 3,3′,5,5′-tetramethylbenzidine diimine by HRP resulting in absorbance at 450 nm (Martin, T L et al. J. Histochem. Cytochem., 1984, 32, 793).

Ras-GTP = Ras-GTP (Homo sapiens, UniProt P01116); experiment: FA binding to K-Ras loaded with GTP
[6] = target: GST-FKBP12 fusion protein (Homo sapiens, UniProt P62942); experiment: FA binding to GST-FKBP12

Which IC50 (K-Ras [1]) does the source give for `Cc1[nH]c2cc(Cl)cc(Cl)c2c1CCN` [DCAI, 4,6-dichloro-2-methyl-3-aminoethyl-indole] here?
Its IC50 is 1400 µM.

Which “anti-proliferative activity against H358 lung cancer cells” value (H358 lung cancer cells) does the source give for `CCCCCCCC/C=C\CCCCCCCC(=O)NCCCC[C@H](NC(=O)[C@@H]1CNC(=O)c2cc3cc(c2)C(=O)NC(Cc2ccc4ccccc4c2)C(=O)N[C@@H](CO)C(=O)N[C@@H](CCC(N)=O)C(=O)NC(Cc2ccc4ccccc4c2)C(=O)N[C@@H](c2ccccc2)C(=O)N[C@@H](CCCCNC3=O)C(=O)N[C@H](Cc2ccccc2)C(=O)N[C@@H](CCCNC(=N)N)C(=O)N[C@H](C(C)C)C(=O)NC(CCCNC(=N)N)C(=O)N1)C(N)=O` (some centres unmarked) [oleiylated cyclorasin B3] here?
The value was “modest anti-proliferative activity”.

With “Bicyclo(Arg-Arg-Arg-Arg-Nal-Phe-Dap-S er-D-Val-Pro-pTyr-His-Dap) (RRRR[Nal]F[Dap]S[dV]P[pY]H[Dap]; linker N-7-13 via trimesic acid (inferred)) [control bicyclic peptide, control peptide arbitrarily selected from another library (unrelated to TNFα), reference compound]” as the compound, how does the “protection of cells from TNFα-induced cell death” value (WEHI-13VAR fibroblasts [2]; TNFα 0.04 ng/mL, peptide 0-25 μM, actinomycin D) read?
Its value is “no protective effect”.

What about the “KD for TNFα” value (human TNFα) of the same compound?
The value was “no detectable binding”.

For “Orn-Arg-nal-Arg-Fpa-Lys-phe-glu-Gly-Dap [Hit 105B]”, which “inhibition of binding of (FITC-labeled) cyclorasin B4 to K-Ras” value (K-Ras [3]) is on record?
The value was “inhibited the binding of FITC-labeled B4 to K-Ras”.

And the “effect on Ras-Raf interaction (bead staining)” value (Ras-Raf interaction)?
Its value is “completely abolished”.

Which “LD50 of TNFα in the absence of TNFα inhibitor” value (WEHI-13VAR fibroblasts [2]; TNFα 0-250 ng/mL) does the source give for “TNFα: Tumor necrosis factor-alpha, cytokine used to induce cell death” here?
Its value is 0.46 ng/mL.

What about the “LD50 range of TNFα” value (WEHI-13VAR fibroblasts [4]) of the same compound?
The value was 0.005 to 0.065 ng/mL.

For “bicyclo(Ala-d-Leu-Phe-Arg-d-Asn-Pra-Ile-Asp-K-FNalR4-Dap)-K [Peptide 41]”, which EC50 (H1299 lung cancer cells; 24-hour treatment, peptide 0-40 μM, read-out: ED50, anti-proliferative activity) is on record?
Its EC50 is about 9 µM.

What about the EC50 (H1299 lung cancer cells; 72 h, read-out: ED50, cell growth inhibition) of the same compound?
Its EC50 is about 7 µM.

For “bicyclo(Arg-Asp-Phg-Pra-d-Asn-K-FNalR4-Dap)-K (RD[Phg][Pra][dN]KF[dNal]RRRR[Dap]K-NH2; linker N-6-13 via trimesoyl″ (inferred); not fully specified; printed as bicyclo(Arg-Asp-Phg-Pra-d-Asn-K-FNalR4-Dap)-K) [Peptide 1]”, which “KD for K-Ras” value (K-Ras [5]) is on record?
The value was “does not bind”.

For “bicyclo(Phg-Tyr-D-Ala-Lys-Tyr-D-Phe-Gly-D-Lys-His-Dap) [Necrostatin C1]”, which “LD50 of TNFα in the presence of 50 μM Necrostatin C1” value (WEHI-13VAR fibroblasts [2]; TNFα 0-250 ng/mL) is on record?
Its value is 1.8 ng/mL.

And the IC50 (TNFα-TNFR1 interaction)?
The IC50 was 3.1 µM.

And the Kd (human TNFα)?
Its Kd is 0.45 µM.

With “nal-Ser-Gln-nal-Phg-Lys-phe-Arg-val-Arg-Dap [Hit 82]” as the compound, how does the “fold higher affinity for Ras-GTP and Ras-GPPNP than Ras-GDP” value (Ras-GTP) read?
The value was “approximately 8 fold”.

What about the “binding to GST-FKBP12” value [6] of the same compound?
Its value is “very weakly”.

And the “effect on Ras-Raf interaction (bead staining)” value (Ras-Raf interaction; listed as cyclorasin B3)?
Its value is “completely abolished; also recorded: abolished Ras-Raf interaction”.

From patent US9868767B2, “Chemical synthesis and screening of bicyclic peptide libraries” (OHIO STATE INNOVATION FOUNDATION, priority 2013, dated 2018)
